Results as given in ChEMBL document CHEMBL3351547, “Ricinine: a pyridone alkaloid from Ricinus communis that activates the Wnt signaling pathway through casein kinase 1α” (Bioorg Med Chem, 2014).
Activity calls are given as the source filed them. No cut-off for these calls is given here.

How the values were obtained:
[1] = Activation of Proto-oncogene protein Wnt/beta-catenin pathway in human STF/293 cells assessed as increase in nuclear beta-catenin expression at 5 to 20 uM after 24 hrs; format: cell-based
[2] = target: Casein kinase I isoform alpha (Homo sapiens) (UniProt P48729); experiment: Inhibition of CK1alpha in human STF/293 cells assessed as reduction in beta-catenin Ser45 phosphorylation at 5 to 20 uM after 24 hrs; format: cell-based
[3] = Activation of Proto-oncogene protein Wnt/beta-catenin pathway in zebra fish assessed as increase in beta-catenin expression at 100 to 300 uM treated from 1.75 hrs post fertilization to 24 hrs post fertilization; settings: Danio rerio
HEK293 [4] = experiment: Cytotoxicity against STF reporter expressing HEK293 cells at 10 to 30 uM after 24 hrs by fluorescein diacetate dye based fluorescence assay; format: cell-based; settings: human, hek293, 24 h
HEK293 [5] = experiment: Effect on CK1alpha expression in STF reporter expressing HEK293 cells at 5 to 20 uM after 24 hrs; format: functional, cell-based; settings: Homo sapiens
HEK293 [6] = experiment: Effect on GSK3beta expression in STF reporter expressing HEK293 cells at 5 to 20 uM after 24 hrs; format: functional, cell-based; settings: Homo sapiens
[7] = Activation of Proto-oncogene protein Wnt/beta-catenin pathway in human STF/293 cells assessed as increase in cytosolic beta-catenin expression at 5 to 20 uM after 24 hrs; format: cell-based
[8] = target: Casein kinase I isoform alpha (Homo sapiens) (UniProt P48729); experiment: Inhibition of CK1alpha in human STF/293 cells assessed as reduction in beta-catenin Thr41 phosphorylation at 5 to 20 uM after 24 hrs; format: cell-based
[9] = target: Casein kinase I isoform alpha (Homo sapiens) (UniProt P48729); experiment: Inhibition of CK1alpha in human STF/293 cells assessed as reduction in beta-catenin Ser33/Ser37/Thr41 phosphorylation at 20 uM in presence of 200 nM CK1alpha activator pyrvinium after 24 hrs; format: cell-based
[10] = target: Casein kinase I isoform alpha (Homo sapiens) (UniProt P48729); experiment: Inhibition of CK1alpha in human STF/293 cells assessed as reduction in beta-catenin Ser33 phosphorylation at 5 to 20 uM after 24 hrs; format: cell-based
STF/293 = experiment: Activation of TCF/beta-catenin transcription in human STF/293 cells assessed as increase in TOP activity by luciferase reporter gene assay; format: cell-based
[11] = target: Casein kinase I isoform alpha (Homo sapiens) (UniProt P48729); experiment: Inhibition of CK1alpha in human STF/293 cells assessed as reduction in beta-catenin Ser37 phosphorylation at 5 to 20 uM after 24 hrs; format: cell-based
[12] = target: Casein kinase I isoform alpha (Homo sapiens) (UniProt P48729); experiment: Inhibition of CK1alpha in human STF/293 cells assessed as reduction in beta-catenin Ser45 phosphorylation at 20 uM in presence of 200 nM CK1alpha activator pyrvinium after 24 hrs; format: cell-based
HEK293 [13] = experiment: Activation of gene transcription in HEK293 cells assessed as increase in FOP at 10 to 30 uM activity by luciferase reporter gene assay; format: functional, cell-based; settings: Homo sapiens
[14] = Activation of Proto-oncogene protein Wnt/beta-catenin pathway in human STF/293 cells assessed as increase in beta-catenin expression at 20 uM in presence of 200 nM CK1alpha activator pyrvinium after 24 hrs; format: cell-based

Chain of Casein kinase I isoform alpha (Homo sapiens) (P48729 2-337 limits assumed): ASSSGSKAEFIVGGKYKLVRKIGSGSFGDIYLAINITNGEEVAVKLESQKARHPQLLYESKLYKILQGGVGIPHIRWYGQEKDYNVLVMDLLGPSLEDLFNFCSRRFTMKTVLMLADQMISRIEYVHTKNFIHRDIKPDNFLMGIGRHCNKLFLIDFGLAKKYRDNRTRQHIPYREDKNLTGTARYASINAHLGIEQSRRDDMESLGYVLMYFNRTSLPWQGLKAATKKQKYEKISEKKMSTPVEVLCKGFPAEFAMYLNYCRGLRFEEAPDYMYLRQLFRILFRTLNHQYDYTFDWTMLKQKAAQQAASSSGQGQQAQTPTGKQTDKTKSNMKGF

Which Activity [1] does the source give for `COc1ccn(C)c(=O)c1C#N` [RICININE] here?
The Activity was “Active”.

And the inhibition [2]?
Its inhibition is “Active”.

And the Activity [3]?
Its Activity is “Dose-dependent effect”.

What about the Activity (HEK293 [4]) of the same compound?
Its Activity is “Non-toxic”.

And the Activity (HEK293 [5])?
The Activity was “inactive”.

And the Activity (HEK293 [6])?
Its Activity is “inactive”.

And the Activity [7]?
The Activity was “Active”.

And the inhibition [8]?
Its inhibition is “Active”.

And the inhibition [9]?
The inhibition was “Active”.

What about the inhibition [10] of the same compound?
The inhibition was “Active”.

And the Activity (STF/293)?
Its Activity is “Dose-dependent effect”.

And the inhibition [11]?
Its inhibition is “Active”.

And the inhibition [12]?
The inhibition was “Active”.

And the Activity (HEK293 [13])?
The Activity was “inactive”.

And the Activity [14]?
The Activity was “Active”.

Which results are given for `CC[C@H](CC[C@@H](C)[C@H]1CC[C@H]2[C@@H]3C(=O)C=C4C[C@@H](O)CC[C@]4(C)[C@H]3CC[C@]12C)C(C)C`?
Activity (HEK293 [4]): Non-toxic; Activity (STF/293): Dose-dependent effect; Activity (HEK293 [13]): inactive

Which Activity (HEK293 [4]) does the source give for `CC[C@H](CC[C@@H](C)[C@H]1CC[C@H]2[C@@H]3CC=C4C[C@@H](O[C@@H]5O[C@H](CO)[C@@H](O)[C@H](O)[C@H]5O)CC[C@]4(C)[C@H]3CC[C@]12C)C(C)C` [SITOGLUSIDE] here?
Its Activity is “Non-toxic”.

And the Activity (STF/293)?
Its Activity is “Dose-dependent effect”.

For `C=C(C)[C@@H]1CC[C@]2(C)CC[C@]3(C)[C@H](CC[C@@H]4[C@@]5(C)CC[C@H](O)C(C)(C)[C@@H]5CC[C@]43C)[C@@H]12` [LUPEOL], which Activity (HEK293 [4]) is on record?
The Activity was “Non-toxic”.

And the Activity (STF/293)?
Its Activity is “Dose-dependent effect”.
